Experimental data reported in the kinase profiling compilation of Christmann-Franck et al. (2016).

Columns and labels:
Assay in all cases: KINOMEscan competition binding
Settings in all cases: compound 10.0 µM
CDK18 (human) = CDK18 (human) (UniProt Q07002)
LYN (human) = LYN (human) (UniProt P07948)
PDPK1 (human) = PDPK1 (human) (UniProt O15530)
CDK14 (human) = CDK14 (human) (UniProt O94921)
CDC42BPB (human) = CDC42BPB (human) (UniProt Q9Y5S2)
TLK2 (human) = TLK2 (human) (UniProt Q86UE8)
STK38 (human) = STK38 (human) (UniProt Q15208)
Chain of STK38 (human) (Q15208 whole entry, looked up): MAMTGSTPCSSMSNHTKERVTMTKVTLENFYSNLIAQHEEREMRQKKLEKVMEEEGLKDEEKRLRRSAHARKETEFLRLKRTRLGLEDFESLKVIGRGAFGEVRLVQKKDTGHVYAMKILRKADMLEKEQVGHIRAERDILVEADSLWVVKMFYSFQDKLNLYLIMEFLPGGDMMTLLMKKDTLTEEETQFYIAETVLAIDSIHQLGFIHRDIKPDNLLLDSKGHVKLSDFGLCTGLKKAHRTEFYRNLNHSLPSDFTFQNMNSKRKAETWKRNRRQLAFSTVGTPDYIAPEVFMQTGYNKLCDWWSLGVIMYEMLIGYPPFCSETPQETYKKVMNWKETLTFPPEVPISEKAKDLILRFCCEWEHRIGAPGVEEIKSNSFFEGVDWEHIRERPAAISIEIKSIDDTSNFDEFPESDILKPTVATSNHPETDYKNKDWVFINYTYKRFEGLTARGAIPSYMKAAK

CDK8 (human) = CDK8 (human) (UniProt P49336)
Chain of CDK8 (human) (P49336 whole entry, looked up): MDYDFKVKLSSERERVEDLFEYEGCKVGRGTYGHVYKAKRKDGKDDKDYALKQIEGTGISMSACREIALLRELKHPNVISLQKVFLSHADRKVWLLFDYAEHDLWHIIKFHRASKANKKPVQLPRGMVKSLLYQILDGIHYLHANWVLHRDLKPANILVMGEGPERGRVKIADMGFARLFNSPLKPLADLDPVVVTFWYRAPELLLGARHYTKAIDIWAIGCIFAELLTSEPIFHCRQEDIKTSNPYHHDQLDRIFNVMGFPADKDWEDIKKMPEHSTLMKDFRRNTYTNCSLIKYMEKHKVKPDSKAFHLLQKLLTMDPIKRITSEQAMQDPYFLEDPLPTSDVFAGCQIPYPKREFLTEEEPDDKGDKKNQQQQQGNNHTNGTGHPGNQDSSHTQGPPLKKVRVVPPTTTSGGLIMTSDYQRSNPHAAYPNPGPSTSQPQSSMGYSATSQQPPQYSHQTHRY

PIK3CA (human) = PIK3CA (human) (UniProt P42336)
PAK3 (human) = PAK3 (human) (UniProt O75914)
STK11 (human) = STK11 (human) (UniProt Q15831)
PIK3C2B (human) = PIK3C2B (human) (UniProt O00750)
PAK2 (human) = PAK2 (human) (UniProt Q13177)
CDKL2 (human) = CDKL2 (human) (UniProt Q92772)
Chain of CDKL2 (human) (Q92772 whole entry, looked up): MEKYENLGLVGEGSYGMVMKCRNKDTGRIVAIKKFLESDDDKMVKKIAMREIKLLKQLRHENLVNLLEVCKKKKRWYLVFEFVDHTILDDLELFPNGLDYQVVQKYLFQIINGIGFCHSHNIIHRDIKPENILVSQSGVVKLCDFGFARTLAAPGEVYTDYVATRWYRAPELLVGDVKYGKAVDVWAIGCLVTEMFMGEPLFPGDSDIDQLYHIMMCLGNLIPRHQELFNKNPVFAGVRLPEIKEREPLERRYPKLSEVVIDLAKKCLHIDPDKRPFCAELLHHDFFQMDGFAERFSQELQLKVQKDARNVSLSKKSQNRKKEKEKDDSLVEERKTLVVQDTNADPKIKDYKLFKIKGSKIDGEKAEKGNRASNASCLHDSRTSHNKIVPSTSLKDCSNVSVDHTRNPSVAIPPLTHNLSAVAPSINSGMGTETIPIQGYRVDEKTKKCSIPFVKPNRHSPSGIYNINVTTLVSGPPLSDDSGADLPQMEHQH

MINK1 (human) = MINK1 (human) (UniProt Q8N4C8)
Chain of MINK1 (human) (Q8N4C8 whole entry, looked up): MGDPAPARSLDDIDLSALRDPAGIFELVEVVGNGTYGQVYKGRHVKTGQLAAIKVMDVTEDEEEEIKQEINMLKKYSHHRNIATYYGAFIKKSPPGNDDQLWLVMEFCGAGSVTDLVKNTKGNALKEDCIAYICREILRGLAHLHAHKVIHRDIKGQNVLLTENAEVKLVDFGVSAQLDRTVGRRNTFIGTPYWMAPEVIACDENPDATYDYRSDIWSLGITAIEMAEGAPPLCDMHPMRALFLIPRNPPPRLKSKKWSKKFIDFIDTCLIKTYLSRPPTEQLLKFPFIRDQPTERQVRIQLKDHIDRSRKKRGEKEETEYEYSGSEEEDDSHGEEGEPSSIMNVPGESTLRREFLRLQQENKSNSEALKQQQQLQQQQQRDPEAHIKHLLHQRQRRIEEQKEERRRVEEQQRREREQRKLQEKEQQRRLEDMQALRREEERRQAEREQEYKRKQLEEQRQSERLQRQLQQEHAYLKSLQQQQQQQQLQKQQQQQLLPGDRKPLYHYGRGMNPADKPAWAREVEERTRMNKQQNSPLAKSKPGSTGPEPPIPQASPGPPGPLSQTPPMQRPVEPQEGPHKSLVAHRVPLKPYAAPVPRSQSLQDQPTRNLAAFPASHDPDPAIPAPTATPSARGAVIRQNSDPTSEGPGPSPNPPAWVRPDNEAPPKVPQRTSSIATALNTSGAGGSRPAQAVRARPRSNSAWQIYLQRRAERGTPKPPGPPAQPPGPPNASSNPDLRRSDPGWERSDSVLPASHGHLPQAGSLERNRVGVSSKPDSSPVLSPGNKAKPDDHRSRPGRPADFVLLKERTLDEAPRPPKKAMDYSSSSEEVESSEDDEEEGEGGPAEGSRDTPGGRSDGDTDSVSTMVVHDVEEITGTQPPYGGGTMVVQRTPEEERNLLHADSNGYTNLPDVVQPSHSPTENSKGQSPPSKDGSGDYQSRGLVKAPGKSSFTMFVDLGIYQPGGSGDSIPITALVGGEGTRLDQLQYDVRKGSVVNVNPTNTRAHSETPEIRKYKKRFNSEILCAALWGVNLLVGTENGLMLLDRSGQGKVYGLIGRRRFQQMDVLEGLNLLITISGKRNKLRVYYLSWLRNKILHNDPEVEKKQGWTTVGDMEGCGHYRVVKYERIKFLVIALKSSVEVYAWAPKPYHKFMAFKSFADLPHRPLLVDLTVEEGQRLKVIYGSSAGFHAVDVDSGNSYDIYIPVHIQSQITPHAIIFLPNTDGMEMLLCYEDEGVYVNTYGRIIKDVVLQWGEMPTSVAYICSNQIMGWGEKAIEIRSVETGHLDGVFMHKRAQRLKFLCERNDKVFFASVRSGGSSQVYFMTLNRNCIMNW

CSNK1D (human) = CSNK1D (human) (UniProt P48730)
IKBKB (human) = IKBKB (human) (UniProt O14920)
STK25 (human) = STK25 (human) (UniProt O00506)
DCLK2 (human) = DCLK2 (human) (UniProt Q8N568)
KDR (human) = KDR (human) (UniProt P35968)
CDK16 (human) = CDK16 (human) (UniProt Q00536)
STK38L (human) = STK38L (human) (UniProt Q9Y2H1)
Chain of STK38L (human) (Q9Y2H1 whole entry, looked up): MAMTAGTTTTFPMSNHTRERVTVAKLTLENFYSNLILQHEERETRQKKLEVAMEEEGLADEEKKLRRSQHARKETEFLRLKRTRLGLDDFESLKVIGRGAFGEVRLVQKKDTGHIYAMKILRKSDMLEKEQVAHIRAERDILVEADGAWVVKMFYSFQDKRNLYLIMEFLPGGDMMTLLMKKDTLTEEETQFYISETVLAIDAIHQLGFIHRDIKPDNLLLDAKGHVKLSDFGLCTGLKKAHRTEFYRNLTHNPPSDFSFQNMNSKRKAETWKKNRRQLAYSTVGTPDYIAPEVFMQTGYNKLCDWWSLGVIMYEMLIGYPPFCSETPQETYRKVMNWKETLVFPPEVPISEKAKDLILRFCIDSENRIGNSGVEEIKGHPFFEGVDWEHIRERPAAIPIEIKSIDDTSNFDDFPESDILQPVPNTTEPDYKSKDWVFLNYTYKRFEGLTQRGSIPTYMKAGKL

CSNK1G1 (human) = CSNK1G1 (human) (UniProt Q9HCP0)
RPS6KA2 KD1 (human) = RPS6KA2 KD1 (human) (UniProt Q15349)
MST1R (human) = MST1R (human) (UniProt Q04912)
PRKG2 (human) = PRKG2 (human) (UniProt Q13237)
PRPF4B (human) = PRPF4B (human) (UniProt Q13523)
Chain of PRPF4B (human) (Q13523 whole entry, looked up): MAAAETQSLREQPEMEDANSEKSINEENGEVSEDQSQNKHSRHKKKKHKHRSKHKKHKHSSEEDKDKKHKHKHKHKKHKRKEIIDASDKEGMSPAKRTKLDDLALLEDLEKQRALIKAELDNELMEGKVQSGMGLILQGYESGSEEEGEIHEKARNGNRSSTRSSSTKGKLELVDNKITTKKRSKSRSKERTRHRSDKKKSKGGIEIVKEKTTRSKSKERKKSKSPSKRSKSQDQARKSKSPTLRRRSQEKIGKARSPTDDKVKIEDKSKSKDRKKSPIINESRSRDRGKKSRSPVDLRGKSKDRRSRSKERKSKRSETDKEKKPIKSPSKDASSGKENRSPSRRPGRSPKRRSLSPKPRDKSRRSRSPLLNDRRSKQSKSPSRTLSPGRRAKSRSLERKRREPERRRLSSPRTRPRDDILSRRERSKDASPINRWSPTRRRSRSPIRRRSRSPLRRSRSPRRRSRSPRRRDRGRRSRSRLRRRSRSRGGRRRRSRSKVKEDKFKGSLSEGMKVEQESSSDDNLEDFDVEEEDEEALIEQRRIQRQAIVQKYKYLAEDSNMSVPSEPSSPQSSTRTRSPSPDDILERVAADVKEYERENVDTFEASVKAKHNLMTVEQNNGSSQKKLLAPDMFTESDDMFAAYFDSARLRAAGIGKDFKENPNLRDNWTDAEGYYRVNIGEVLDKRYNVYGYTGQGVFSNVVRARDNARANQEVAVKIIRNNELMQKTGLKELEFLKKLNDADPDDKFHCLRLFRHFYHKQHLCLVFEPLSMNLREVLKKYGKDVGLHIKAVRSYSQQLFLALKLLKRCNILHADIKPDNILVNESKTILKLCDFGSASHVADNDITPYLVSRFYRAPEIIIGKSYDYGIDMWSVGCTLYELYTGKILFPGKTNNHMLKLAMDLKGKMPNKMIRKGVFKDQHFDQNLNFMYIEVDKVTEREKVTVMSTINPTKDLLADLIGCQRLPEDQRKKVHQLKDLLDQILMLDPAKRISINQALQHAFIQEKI

LATS2 (human) = LATS2 (human) (UniProt Q9NRM7)
GSK3A (human) = GSK3A (human) (UniProt P49840)
MAPK13 (human) = MAPK13 (human) (UniProt O15264)
CIT (human) = CIT (human) (UniProt O14578)
EGFR (human) = EGFR (human) (UniProt P00533)
CDK11B (human) = CDK11B (human) (UniProt P21127)
Chain of CDK11B (human) (P21127 whole entry, looked up): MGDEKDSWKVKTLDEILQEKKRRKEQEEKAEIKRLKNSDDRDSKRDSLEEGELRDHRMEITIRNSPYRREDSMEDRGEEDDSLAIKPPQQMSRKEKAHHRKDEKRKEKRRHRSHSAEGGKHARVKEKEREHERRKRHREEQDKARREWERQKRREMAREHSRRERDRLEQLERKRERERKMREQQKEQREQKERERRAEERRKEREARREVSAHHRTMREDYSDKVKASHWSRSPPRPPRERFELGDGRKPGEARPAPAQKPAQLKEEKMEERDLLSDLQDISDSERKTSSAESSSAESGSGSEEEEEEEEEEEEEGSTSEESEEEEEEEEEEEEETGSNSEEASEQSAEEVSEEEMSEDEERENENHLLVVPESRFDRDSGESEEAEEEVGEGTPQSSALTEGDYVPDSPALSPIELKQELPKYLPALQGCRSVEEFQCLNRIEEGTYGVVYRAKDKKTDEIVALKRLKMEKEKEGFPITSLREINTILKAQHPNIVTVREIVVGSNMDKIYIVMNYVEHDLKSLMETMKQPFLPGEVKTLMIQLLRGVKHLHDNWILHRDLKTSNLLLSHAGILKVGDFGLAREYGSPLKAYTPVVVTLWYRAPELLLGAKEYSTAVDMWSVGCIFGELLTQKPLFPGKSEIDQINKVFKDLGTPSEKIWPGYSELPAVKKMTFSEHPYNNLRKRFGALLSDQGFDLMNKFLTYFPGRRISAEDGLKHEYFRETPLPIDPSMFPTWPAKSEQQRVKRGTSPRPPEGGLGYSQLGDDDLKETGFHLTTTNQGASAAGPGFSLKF

CDKL3 (human) = CDKL3 (human) (UniProt Q8IVW4)
MKNK1 (human) = MKNK1 (human) (UniProt Q9BUB5)
ULK2 (human) = ULK2 (human) (UniProt Q8IYT8)
SRPK1 (human) = SRPK1 (human) (UniProt Q96SB4)
ROCK2 (human) = ROCK2 (human) (UniProt O75116)
CSNK1A1 (human) = CSNK1A1 (human) (UniProt P48729)

| SMILES | kinase still bound, per cent of control (CDK18 (human)) | kinase still bound, per cent of control (LYN (human)) | kinase still bound, per cent of control (PDPK1 (human)) | kinase still bound, per cent of control (CDK14 (human)) | kinase still bound, per cent of control (CDC42BPB (human)) | kinase still bound, per cent of control (TLK2 (human)) | kinase still bound, per cent of control (STK38 (human)) | kinase still bound, per cent of control (CDK8 (human)) | kinase still bound, per cent of control (PAK3 (human)) | kinase still bound, per cent of control (STK11 (human)) | kinase still bound, per cent of control (PIK3C2B (human)) | kinase still bound, per cent of control (PAK2 (human)) | kinase still bound, per cent of control (CDKL2 (human)) | kinase still bound, per cent of control (MINK1 (human)) | kinase still bound, per cent of control (CSNK1D (human)) | kinase still bound, per cent of control (DCLK2 (human)) | kinase still bound, per cent of control (KDR (human)) | kinase still bound, per cent of control (CDK16 (human)) | kinase still bound, per cent of control (STK38L (human)) | kinase still bound, per cent of control (CSNK1G1 (human)) | other results |
| --- | --- | --- | --- | --- | --- | --- | --- | --- | --- | --- | --- | --- | --- | --- | --- | --- | --- | --- | --- | --- | --- |
| CCN(CC)CCCCNc1ncc2c(n1)N(C)C(=O)N(c1c(Cl)c(OC)cc(OC)c1Cl)C2 | 100% | 34% | 100% | 100% | 100% | 100% | 100% | 100% | 100% | 100% | 100% | 100% | 100% | 100% | 100% | 100% | 100% | 100% | 100% | 100% | kinase still bound, per cent of control (PIK3CA (human)): 100%; kinase still bound, per cent of control (IKBKB (human)): 100%; kinase still bound, per cent of control (STK25 (human)): 100%; kinase still bound, per cent of control (RPS6KA2 KD1 (human)): 100%; kinase still bound, per cent of control (MST1R (human)): 100%; kinase still bound, per cent of control (PRKG2 (human)): 100%; kinase still bound, per cent of control (PRPF4B (human)): 100%; kinase still bound, per cent of control (LATS2 (human)): 100%; kinase still bound, per cent of control (GSK3A (human)): 100%; kinase still bound, per cent of control (MAPK13 (human)): 100%; kinase still bound, per cent of control (CIT (human)): 100%; kinase still bound, per cent of control (EGFR (human)): 100%; kinase still bound, per cent of control (CDK11B (human)): 100%; kinase still bound, per cent of control (CDKL3 (human)): 100%; kinase still bound, per cent of control (MKNK1 (human)): 100%; kinase still bound, per cent of control (ULK2 (human)): 100%; kinase still bound, per cent of control (SRPK1 (human)): 100%; kinase still bound, per cent of control (ROCK2 (human)): 100% |
| C[C@@H](Oc1cc(-c2cnn(C3CCNCC3)c2)cnc1N)c1c(Cl)ccc(F)c1Cl | 94% | 13% | 100% | 92% | 62% | 100% | 68% | 100% | 5.8% | 57% | 46% | 96% | 5.4% | 18% | 100% | 1.2% | 78% | 96% | 95% | 100% | kinase still bound, per cent of control (PIK3CA (human)): 100%; kinase still bound, per cent of control (IKBKB (human)): 14%; kinase still bound, per cent of control (STK25 (human)): 65%; kinase still bound, per cent of control (RPS6KA2 KD1 (human)): 34%; kinase still bound, per cent of control (PRKG2 (human)): 89%; kinase still bound, per cent of control (PRPF4B (human)): 48%; kinase still bound, per cent of control (LATS2 (human)): 56%; kinase still bound, per cent of control (GSK3A (human)): 100%; kinase still bound, per cent of control (MAPK13 (human)): 100%; kinase still bound, per cent of control (CIT (human)): 62%; kinase still bound, per cent of control (CSNK1A1 (human)): 61%; kinase still bound, per cent of control (CDK11B (human)): 0.1%; kinase still bound, per cent of control (CDKL3 (human)): 68%; kinase still bound, per cent of control (MKNK1 (human)): 100%; kinase still bound, per cent of control (ULK2 (human)): 4.7%; kinase still bound, per cent of control (SRPK1 (human)): 26%; kinase still bound, per cent of control (ROCK2 (human)): 8% |
| COc1cc2ncn(-c3cc(OCc4ccccc4C(F)(F)F)c(C(N)=O)s3)c2cc1OC | 83% | 60% | 66% | 90% | 64% | 100% | 94% | 94% | 77% | 37% | 63% | 96% | 90% | 63% | 81% | 99% | 76% | 100% | 100% | 86% | kinase still bound, per cent of control (RPS6KA2 KD1 (human)): 61%; kinase still bound, per cent of control (MST1R (human)): 100%; kinase still bound, per cent of control (PRKG2 (human)): 86%; kinase still bound, per cent of control (PRPF4B (human)): 20%; kinase still bound, per cent of control (LATS2 (human)): 50%; kinase still bound, per cent of control (GSK3A (human)): 100%; kinase still bound, per cent of control (MAPK13 (human)): 100%; kinase still bound, per cent of control (CSNK1A1 (human)): 60%; kinase still bound, per cent of control (CDK11B (human)): 100%; kinase still bound, per cent of control (CDKL3 (human)): 100%; kinase still bound, per cent of control (MKNK1 (human)): 88%; kinase still bound, per cent of control (ROCK2 (human)): 100% |
